{"source": "ChEMBL document CHEMBL1201862", "about": "“PubChem BioAssay data set” (2004)", "assay_in_all_cases": "growth of human tumour cells (NCI), 48 h", "key": {"CAKI-1": {"test_system": "CAKI-1"}, "HCT-116": {"test_system": "HCT-116"}, "SK-MEL-28": {"test_system": "SK-MEL-28"}, "SF-539": {"test_system": "SF-539"}, "OVCAR-8": {"test_system": "OVCAR-8"}, "UACC-257": {"test_system": "UACC-257"}, "HCC 2998": {"test_system": "HCC 2998"}, "A498": {"test_system": "A498"}, "ACHN": {"test_system": "ACHN"}, "SF-268": {"test_system": "SF-268"}, "CCRF-CEM": {"test_system": "CCRF-CEM"}, "HOP-92": {"test_system": "HOP-92"}, "SF-295": {"test_system": "SF-295"}, "KM12": {"test_system": "KM12"}, "RPMI-8226": {"test_system": "RPMI-8226"}, "NCI/ADR-RES": {"test_system": "NCI/ADR-RES"}, "SN12C": {"test_system": "SN12C"}, "786-0": {"test_system": "786-0"}, "MDA-MB-231": {"test_system": "MDA-MB-231"}, "UO-31": {"test_system": "UO-31"}, "MDA-MB-435": {"test_system": "MDA-MB-435"}, "DU-145": {"test_system": "DU-145"}, "NCI-H23": {"test_system": "NCI-H23"}, "MOLT-4": {"test_system": "MOLT-4"}, "SW-620": {"test_system": "SW-620"}, "Hs-578T": {"test_system": "Hs-578T"}, "OVCAR-5": {"test_system": "OVCAR-5"}, "UACC-62": {"test_system": "UACC-62"}, "NCI-H460": {"test_system": "NCI-H460"}, "HCT-15": {"test_system": "HCT-15"}, "OVCAR-4": {"test_system": "OVCAR-4"}, "A549": {"test_system": "A549"}, "COLO 205": {"test_system": "COLO 205"}, "Malme-3M": {"test_system": "Malme-3M"}, "RXF 393": {"test_system": "RXF 393"}, "U-251": {"test_system": "U-251"}, "SNB-75": {"test_system": "SNB-75"}, "EKVX": {"test_system": "EKVX"}, "MCF7": {"test_system": "MCF7"}, "NCI-H522": {"test_system": "NCI-H522"}, "NCI-H226": {"test_system": "NCI-H226"}, "SNB-19": {"test_system": "SNB-19"}, "TK-10": {"test_system": "TK-10"}, "HT-29": {"test_system": "HT-29"}, "HL-60": {"test_system": "HL-60"}, "M14": {"test_system": "M14"}, "LOX IMVI": {"test_system": "LOX IMVI"}, "BT-549": {"test_system": "BT-549"}, "T47D": {"test_system": "T47D"}, "SK-OV-3": {"test_system": "SK-OV-3"}, "IGROV-1": {"test_system": "IGROV-1"}, "K562": {"test_system": "K562"}, "MDA-N": {"test_system": "MDA-N"}, "SK-MEL-5": {"test_system": "SK-MEL-5"}}, "note": "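1) Cells in 96-well plates. 2) Compound, 48 h, 5 concentrations. 3) Linear interpolation between surrounding doses. 4) Unreached endpoint = highest concentration. GI50 is the concentration that inhibits growth by half.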 Activity calls are given as the source filed them. No stated cut-off is given here; in the data, active = GI50 up to about 1.1 µM and inactive = higher."}
{"smiles": "CC(=O)NCCCCNCCCNC(C)=O", "values": [{"measurement": "GI50", "setting": "CAKI-1", "value": "> 100 µM (inactive)"}, {"measurement": "GI50", "setting": "HCT-116", "value": "> 100 µM (inactive)"}, {"measurement": "GI50", "setting": "SK-MEL-28", "value": "> 100 µM (inactive)"}, {"measurement": "GI50", "setting": "SF-539", "value": "> 100 µM (inactive)"}, {"measurement": "GI50", "setting": "OVCAR-8", "value": "> 100 µM (inactive)"}, {"measurement": "GI50", "setting": "UACC-257", "value": "> 100 µM (inactive)"}, {"measurement": "GI50", "setting": "HCC 2998", "value": "> 100 µM (inactive)"}, {"measurement": "GI50", "setting": "A498", "value": "> 100 µM (inactive)"}, {"measurement": "GI50", "setting": "ACHN", "value": "> 100 µM (inactive)"}, {"measurement": "GI50", "setting": "SF-268", "value": "> 100 µM (inactive)"}, {"measurement": "GI50", "setting": "CCRF-CEM", "value": "> 100 µM (inactive)"}, {"measurement": "GI50", "setting": "HOP-92", "value": "> 100 µM (inactive)"}, {"measurement": "GI50", "setting": "SF-295", "value": "> 100 µM (inactive)"}, {"measurement": "GI50", "setting": "KM12", "value": "> 100 µM (inactive)"}, {"measurement": "GI50", "setting": "RPMI-8226", "value": "> 100 µM (inactive)"}, {"measurement": "GI50", "setting": "NCI/ADR-RES", "value": "> 100 µM (inactive)"}, {"measurement": "GI50", "setting": "SN12C", "value": "> 100 µM (inactive)"}, {"measurement": "GI50", "setting": "786-0", "value": "> 100 µM (inactive)"}, {"measurement": "GI50", "setting": "MDA-MB-231", "value": "> 100 µM (inactive)"}, {"measurement": "GI50", "setting": "UO-31", "value": "> 100 µM (inactive)"}, {"measurement": "GI50", "setting": "MDA-MB-435", "value": "> 100 µM (inactive)"}, {"measurement": "GI50", "setting": "DU-145", "value": "> 100 µM (inactive)"}, {"measurement": "GI50", "setting": "NCI-H23", "value": "> 100 µM (inactive)"}, {"measurement": "GI50", "setting": "MOLT-4", "value": "> 100 µM (inactive)"}, {"measurement": "GI50", "setting": "SW-620", "value": "> 100 µM (inactive)"}, {"measurement": "GI50", "setting": "Hs-578T", "value": "> 100 µM (inactive)"}, {"measurement": "GI50", "setting": "OVCAR-5", "value": "> 100 µM (inactive)"}, {"measurement": "GI50", "setting": "UACC-62", "value": "> 100 µM (inactive)"}, {"measurement": "GI50", "setting": "NCI-H460", "value": "> 100 µM (inactive)"}, {"measurement": "GI50", "setting": "HCT-15", "value": "> 100", "unit": "µM"}, {"measurement": "GI50", "setting": "OVCAR-4", "value": "> 100 µM (inactive)"}, {"measurement": "GI50", "setting": "A549", "value": "> 100 µM (inactive)"}, {"measurement": "GI50", "setting": "COLO 205", "value": "> 100 µM (inactive)"}, {"measurement": "GI50", "setting": "Malme-3M", "value": "> 100 µM (inactive)"}, {"measurement": "GI50", "setting": "RXF 393", "value": "> 100 µM (inactive)"}, {"measurement": "GI50", "setting": "U-251", "value": "> 100 µM (inactive)"}, {"measurement": "GI50", "setting": "SNB-75", "value": "> 100 µM (inactive)"}, {"measurement": "GI50", "setting": "EKVX", "value": "> 100 µM (inactive)"}, {"measurement": "GI50", "setting": "MCF7", "value": "> 100 µM (inactive)"}, {"measurement": "GI50", "setting": "NCI-H522", "value": "> 100 µM (inactive)"}, {"measurement": "GI50", "setting": "NCI-H226", "value": "> 100 µM (inactive)"}, {"measurement": "GI50", "setting": "SNB-19", "value": "> 100 µM (inactive)"}, {"measurement": "GI50", "setting": "TK-10", "value": "> 100 µM (inactive)"}, {"measurement": "GI50", "setting": "HT-29", "value": "> 100 µM (inactive)"}, {"measurement": "GI50", "setting": "HL-60", "value": "> 100 µM (inactive)"}, {"measurement": "GI50", "setting": "M14", "value": "> 100 µM (inactive)"}, {"measurement": "GI50", "setting": "LOX IMVI", "value": "> 100 µM (inactive)"}, {"measurement": "GI50", "setting": "BT-549", "value": "> 100 µM (inactive)"}, {"measurement": "GI50", "setting": "T47D", "value": "> 100 µM (inactive)"}, {"measurement": "GI50", "setting": "SK-OV-3", "value": "> 100 µM (inactive)"}, {"measurement": "GI50", "setting": "IGROV-1", "value": "> 100 µM (inactive)"}, {"measurement": "GI50", "setting": "K562", "value": "> 100 µM (inactive)"}, {"measurement": "GI50", "setting": "MDA-N", "value": "> 100 µM (inactive)"}, {"measurement": "GI50", "setting": "SK-MEL-5", "value": "> 100 µM (inactive)"}]}
